# Data from patent publication US20250339426A1, “GCN2 MODULATOR FOR TREATING CANCER” (HIBERCELL, INC., priority 2022, published 2025).
# How the values were obtained:
# [1] = tested on: MOLM-16 (human AML cells); test: In vivo tumor growth inhibition, MOLM-16 xenograft; parameters: species or system NOD SCID mice
# Description: MOLM-16 (human AML cells): Female 6-8 weeks old nonobese diabetic/severe combined immunodeficiency (NOD SCID) mice were inoculated subcutaneously on the right flank with MOLM-16 tumor cells (1×10^7) in RPMI 1640 without serum for tumor development. The treatments were started when the mean tumor size reached approximately 220 mm^3 at Day 14 after cell inoculation and continued until end of study by twice daily oral gavage dosing of HC-7366 at listed doses (vehicle, 0.25 mg/kg HC-7366, 0.5 mg/kg HC-7366, 1 mg/kg HC-7366, or 2 mg/kg HC-7366, FIG. 16)
# (§1) [formula] • 2.2.2 Tumor Measurements: The measurement of tumor size was conducted three times weekly with a caliper and recorded. The tumor volume (mm^3) was estimated using the formula: TV=a×b^2/2, where “a” and “b” is long and short diameters of a tumor, respectively. Tumor volume was calculated using the formula [tumor volume (mm^3)=π/6×length×width^2).
# (§2) Regression was calculated using the formula=100×ΔT/T initial, if ΔT<0. Animals with 0 mm^3 tumor volume (no measurable tumor) for three consecutive measurements were considered as complete responders and animals with 50% tumor regressions were partial responders.
# [2] = tested on: ASNS, PSAT1, PHGDH, PUMA, S100A8/A9 in KG-1 tumors; test: Tumor IHC, KG-1 tumors; assay type: in vivo, NOD SCID mice
# Description: (§3) Immunohistochemical analysis was carried out on tumors that were collected at the end of the study described in Example 6. Formalin-fixed paraffin-embedded samples were sectioned at 5 μm thickness and mounted on Superfrost Plus microscope slides (Fisher Scientific). All immunohistochemical (IHC) staining was performed on Bond Rx auto-stainer (Leica Biosystems) using the conventional TSA-amplified detection system. Primary antibodies used were as follows: a-ASNS (Cell Signaling Technology #92479), a-PUMA (Cell Signaling Technology #98672), a-PSAT1 (Proteintech #10501-1-AP), a-PHGDH (Proteintech #14719-1-AP), HIF-1a-Novus Biologicals NB 100-479, HIF-2a-Novus Biologicals NB100-122SS, and GLUT-1-EMB Biosciences 07-1401. TSA-conjugated Alexa488, Alexa 568 and Alexa647 fluorophores from Invitrogen (#B40953, #B40956, and #B40958) were used at 1:500 dilution. Slides were counterstained with DAPI and cover slipped using Mowiol anti-fade mounting media (Sigma #D2522).
# (§4) Slides were imaged with Aperio Versa 200 (Leica Biosystems) whole-slide scanner using 10×/0.32NA objective, and the data were analyzed using custom-written macros in ImageJ/FIJI (NIH). Briefly, 150 μm of outer edges of the tumor sections and necrotic regions (determined by lack of 4′,6-diamidino-2-phenylindole (DAPI) signal or presence of condensed DNA) were eliminated from the analysis. Gaussian-blurred DAPI channel was used to measure the area of the tumor tissue. Scans of immune-staining were processed to remove background, then total intensity value above appropriate threshold levels was measured and normalized to tissue area. All graphing and statistics (one-way ANOVA and pair-wise comparisons) were performed using Prism GraphPad.
# Slides were deparaffinized, rehydrated and heat mediated antigen retrieval was conducted with AR6 buffer (Akoya). Slides were blocked with Roche diagnostics antibody diluent (Fisher) and stained with primary antibodies for 1 hr at 110 rpm. After washing, horseradish peroxidase (HRP)-conjugated secondary antibodies were added for 10 mins at 110 rpm. After washing, OPAL detection dye (Akoya) was added for a static 10 min incubation. Antigen retrieval was performed post OPAL staining, followed by DAPI staining and slide covering. Multispectral images were captured on the Polaris imaging system (Akoya) and spectral unmixing, cell segmentation and phenotyping was performed using Inform Tissue Finder software (Akoya). Imaging data was converted into .csv files and imported into Flowjo for analysis of S100A8/A9 percent positive cells. Primary antibodies used were rabbit anti-human/mouse S100A8/A9 (Clone RM1038, Abcam ab288715, paired with Opal 570).
# [3] = tested on: 786-O (human renal cell carcinoma cancer cells); test: In vivo tumor growth inhibition, 786-O xenograft; parameters: species or system BALB/c nude mice; conditions: HC-7366 single agent, 3 mg/kg twice daily (FIG. 58)
# Description: 786-O (human renal cell carcinoma cancer cells): Female 6-8 weeks old BALB/c nude mice were inoculated subcutaneously on the right flank with 786-O tumor cells (5×10^6) in 0.1 ml of RPMI1640 medium without serum for tumor development. […] For the DC101 combination study, DC101 (murine monoclonal anti-VEGFR2 antibody) was dosed at 15 mg/kg twice a week by intraperitoneal injection.
# as §1, §2
# Female 6-8 weeks old BALB/c nude mice were inoculated subcutaneously on the right flank with 786-O tumor cells (5×10^6) in 0.1 ml of RPMI1640 medium without serum for tumor development (see Example 6). […]
# [4] = tested on: patient-derived Champions' human AML models; test: Ex vivo AML PDX cell viability (Cell Titer Glo), 30 models; assay type: cell-based; conditions: for EC50: Homo sapiens
# Description: . Cell viability was assayed after treating PDX models with DMSO or HC-7366 for 6 days using a plate-based luminescence assay (Cell Titer Glo). […]
# EC50 values were calculated to the bottom of the curve and are provided below. Viability curves are provided for the models CTG-2229 (FIG. 81), CTG-3680 (FIG. 82), CTG-3667 (FIG. 83), CTG-2456 (FIG. 84), CTG-2457 (FIG. 85), and CTG-2454 (FIG. 86).
# [5] = tested on: ASNS, PSAT1, PUMA, HIF1α, HIF2a in DLD-1 tumors; test: Tumor IHC, DLD-1 tumors; assay type: in vivo, BALB/c nude mice
# Description: as §3, §4
# [6] = end of study (day 27), highest induction at 1 and 3 mg/kg
# [7] = end of study (day 20), bell-shaped manner
# [8] = printed 'in FaDu tumors', FIGS. 29-39
structure (smiles),measurement,setting,value
"CNC(=O)c1ncn2cc(-c3c(F)ccc(NS(=O)(=O)c4cc(Cl)cnc4OC)c3F)ncc12 [HC-7366, 6-(3-((5-chloro-2-methoxypyridine)-3-sulfonamido)-2,6-difluorophenyl)-N-methylimidazo[1,5-a]pyrazine-1-carboxamide]",effect on xenograft tumors,[1]; 2 mg/kg twice daily oral,complete eradication
same,effect on xenograft tumors,"[1]; other doses (0.25, 0.5, 1 mg/kg twice daily)",tumor growth inhibition
same,protein levels of S100A8/A9,"[2]; 1 and 3 mg/kg doses, day 27",potently reduced
same,PUMA levels,[2]; day 27,not changed
same,ASNS by IHC,[2]; [6],potently induced
same,PHGDH by IHC,[2]; [6],potently induced
same,PSAT1 by IHC,[2]; [6],potently induced
same,TGI %,[3],~78%
same,viability of primary AML PDX cells,"[4]; 4.57-10,000 nM, 6 days",potently reduced viability
same,EC50,"[4]; 5 PDX models, resistant responders",924 to 2250 nM
same,EC50,"[4]; 11 PDX models, sensitive responders",< 100 nM
same,EC50,"[4]; 12 PDX models, moderate responders",100 to 350 nM
same,response,[4]; two models,no response
same,ASNS by IHC,[5]; [7],potently induced
same,PSAT1 by IHC,[5]; [7],potently induced
same,PUMA by IHC,[5]; [7],potently induced
same,HIF1α protein levels,[5]; [8],significantly reduced
same,HIF2α protein levels,[5]; [8],significantly reduced
